Assay results as given in patent US8343475B2, “Small cationic antimicrobial peptides” (priority 2006, dated 2013).
≈ marks a conversion by molar mass, not a printed value. Residues, ends and D or L forms follow the SMILES beside them. No end group written: not given here.

What was measured:
Format in all cases: cell-based
[1] = tested on: Pseudomonas aeruginosa PAO1 strain H103; settings: for MIC: PAO1; for antimicrobial activity against P. aeruginosa PAO1 (in words): laboratory strain P. aeruginosa PAO1
Method: The biological activity of the peptides can be determined by standard methods known to those of skill in the art, such as “minimal inhibitory concentration (MIC)” assay described in the present examples, whereby the lowest concentration at which no change in OD is observed for a given period of time is recorded as MIC.
Minimal inhibitory concentration (MIC) determination. The MIC of the peptides were measured using a modified broth microdilution method in Mueller Hinton (MH) medium (Wu M, Hancock R E W. 1999. Interaction of the cyclic antimicrobial cationic peptide bactenecin with the outer and cytoplasmic membrane. J Biol Chem 274, 29-35). Briefly, the peptides were dissolved and stored in glass vials. The assay was performed in sterile 96-well polypropylene microtitre plates were used. Serial dilutions of the peptides to be assayed were performed in 0.01% acetic acid (Fisher) containing 0.2% bovine serum albumin (Boehringer Mannheim GmbH) at 10× the desired final concentration. Ten microlitres of the 10× peptides were added to each well of a 96-well polypropylene plate containing 90 μl of MH media per well. Bacteria were added to the plate from an overnight culture at 2-7×10^5 colony forming units/ml and incubated over night at 37° C. The MIC was taken as the concentration at which no growth was observed.
Strains. For the killing assay a mini-Tn5-lux mutant in Pseudomonas aeruginosa H103 was used. The strain is called H1001 and contains a fliC::luxCDABE transcriptional fusion resulting in constitutive expression of luciferase. The bacterial strains used for the antimicrobial activity assays included Escherichia coli UB1005 (F-, nalA37, metB1), a wild-type Salmonella enterica ssp. typhimurium (S. typhimurium), wild-type Pseudomonas aeruginosa PAO1 strain H103, Enterococcus faecalis ATCC29212, Staphylococcus aureus ATCC25923, and a clinical isolate of Staphylococcus epidermidis obtained from Dr. D. Speert (Department of Medicine, University of British Columbia). Antifungal activity was tested using a lab isolate of Candida albicans obtained from Dr. B. Dill (Department of Microbiology and Immunology, University of British Columbia).

[2] = tested on: CXCL1 (Gro-α) release by human PBMC; experiment: Chemokine induction in PBMC (capture ELISA); settings: background (196) subtracted
Method: FIG. 17. Induction of CXCL1 (Gro-α) release by 7.5×10^5 human PBMC in response to treatment with 20 or 100 μg/ml of different peptides for 24 hours.
(§1) Venous blood (20 ml) from healthy volunteers was collected in Vacutainer® collection tubes containing sodium heparin as an anticoagulant (Becton Dickinson, Mississauga, ON) in accordance with UBC ethical approval and guidelines. Blood was diluted 1:1 with complete RPMI 1640 medium and separated by centrifugation over a Ficoll-Paque® Plus (Amersham Biosciences, Piscataway, N.J., USA) density gradient. White blood cells were isolated from the buffy coat, washed twice in RPMI 1640 complete medium, and the number of peripheral blood mononuclear cells (PBMC) was determined by trypan blue exclusion. PBMC (5×10^5) were seeded into 12-well tissue culture dishes (Falcon; Becton Dickinson) at 0.75 to 1×10^6 cells/ml at 37° C. in 5% CO2. The above conditions were chosen to mimic conditions for circulating blood monocytes entering tissues at the site of infection via extravasation.
(§2) Following incubation of the cells under various treatment regimens, the tissue culture supernatants were centrifuged at 1000×g for 5 min, then at 10,000×g for 2 min to obtain cell-free samples. Supernatants were aliquoted and then stored at −20° C. prior to assay for various chemokines by capture ELISA (eBioscience and BioSource International Inc., CA, USA respectively)

[3] = tested on: MCP-3 release by human PBMC; experiment: Chemokine induction in PBMC (capture ELISA); settings: background (6) subtracted
Method: FIG. 16. Induction of MCP3 release by 7.5×10^5 human PBMC in response to treatment with 20 or 100 μg/ml of different peptides for 24 hours.
as §1, §2

[4] = tested on: MCP-1 release by human PBMC; experiment: Chemokine induction in PBMC (capture ELISA); settings: background (204) subtracted
Method: FIG. 15. Induction of MCP-1 release by 7.5×10^5 human PBMC in response to treatment with 20 or 100 μg/ml of different peptides for 24 hours.
as §1, §2

| Compound | MIC [1] | antimicrobial activity against P. aeruginosa PAO1 (in words) [1] | Chemokine induction Gro-α ([2]; 20 μg/ml peptide) | Chemokine induction Gro-α ([2]; 100 μg/ml peptide) | Chemokine induction MCP-3 ([3]; 20 μg/ml peptide) | Chemokine induction MCP-3 ([3]; 100 μg/ml peptide) | Chemokine induction MCP-1 ([4]; 20 μg/ml peptide) | Chemokine induction MCP-1 ([4]; 100 μg/ml peptide) |
| --- | --- | --- | --- | --- | --- | --- | --- | --- |
| CC(C)C[C@H](NC(=O)CNC(=O)[C@H](CCCCN)NC(=O)[C@H](CC(N)=O)NC(=O)[C@H](CCCNC(=N)N)NC(=O)[C@@H](N)CCC(N)=O)C(=O)N[C@@H](CCCNC(=N)N)C(=O)N[C@@H](Cc1c[nH]cn1)C(=O)N[C@@H](Cc1c[nH]cn1)C(N)=O [HHC186, QRNKGLRHH] (H-QRNKGLRHH-NH2; N-terminus assumed) | 381 µM (≈ 436 µg/mL) | did not posses any antimicrobial activity |  |  |  |  |  |  |
| CC(C)[C@H](NC(=O)CNC(=O)[C@@H](NC(=O)[C@H](CCCNC(=N)N)NC(=O)[C@H](CCCCN)NC(=O)[C@H](CO)NC(=O)[C@H](C)N)C(C)C)C(=O)N[C@@H](CCCNC(=N)N)C(=O)N[C@@H](CC(N)=O)C(N)=O [HHC190, ASKRVGVRN] (H-ASKRVGVRN-NH2; N-terminus assumed) | 413 µM (≈ 407 µg/mL) | did not posses any antimicrobial activity |  |  |  |  |  |  |
| FRIRVRVIR (FRIRVRVIR-NH2) [compound 1030] |  |  | 10 pg/mL | 674 pg/mL | 1 pg/mL | 35 pg/mL | 139 pg/mL | 2075 pg/mL |
| 1047 (IIRRWWV) [compound 1047] |  |  | -1 pg/mL | -3 pg/mL | 0 pg/mL | 0 pg/mL | 8 pg/mL | 130 pg/mL |
| 1019 (IVVWRRQLVKNK) [compound 1019] |  |  | 5 pg/mL | 43 pg/mL | 0 pg/mL | 0 pg/mL | 27 pg/mL | 438 pg/mL |
| LVRAIQVRAVIR (LVRAIQVRAVIR-NH2) [compound 1001] |  |  | 88 pg/mL | 850 pg/mL | 0 pg/mL | 40 pg/mL | 516 pg/mL | 2491 pg/mL |
| 1046 (WIRVIRW) [compound 1046] |  |  | 38 pg/mL | 147 pg/mL | 1 pg/mL | 4 pg/mL | 46 pg/mL | 449 pg/mL |
| 1017 (KRIVRRLVARIV) [compound 1017] |  |  | 56 pg/mL | 250 pg/mL | 0 pg/mL | 0 pg/mL | 585 pg/mL | 1019 pg/mL |
| 1015 (VLIRWNGKK) [compound 1015] |  |  | 42 pg/mL | 178 pg/mL | 0 pg/mL | 10 pg/mL | 113 pg/mL | 644 pg/mL |
| 1036 (VQFRIRVIVIRK) [compound 1036] |  |  | 51 pg/mL | 137 pg/mL | 1 pg/mL | 39 pg/mL | 601 pg/mL | 968 pg/mL |
| 1040 (FQVVKIKVR) [compound 1040] |  |  | 2 pg/mL | 264 pg/mL | 0 pg/mL | 9 pg/mL | 74 pg/mL | 1143 pg/mL |
| WRWRVRVWR (WRWRVRVWR-NH2) [compound 1031] |  |  | 172 pg/mL | 112 pg/mL | 9 pg/mL | 9 pg/mL | 875 pg/mL | 552 pg/mL |
| 1003 (IVWKIKRWWVGR) [compound 1003] |  |  | 65 pg/mL | 170 pg/mL | 0 pg/mL | 5 pg/mL | 31 pg/mL | 1361 pg/mL |
| 1038 (IVVRRVIRK) [compound 1038] |  |  | 12 pg/mL | 518 pg/mL | 0 pg/mL | 41 pg/mL | 25 pg/mL | 1552 pg/mL |
| 1008 (RIKWIVRFR) [compound 1008] |  |  | 109 pg/mL | 869 pg/mL | 1 pg/mL | 22 pg/mL | 633 pg/mL | 1775 pg/mL |
| 1039 (IWVIRRVWR) [compound 1039] |  |  | 469 pg/mL | 1717 pg/mL | 13 pg/mL | 67 pg/mL | 603 pg/mL | 2420 pg/mL |
| 1023 (IRVWVLRQR) [compound 1023] |  |  | 36 pg/mL | 38 pg/mL | 0 pg/mL | 1 pg/mL | 250 pg/mL | 712 pg/mL |
| 1024 (RIRVIVLKK) [compound 1024] |  |  | 20 pg/mL | -21 pg/mL | 1 pg/mL | 0 pg/mL | 285 pg/mL | 81 pg/mL |
